# Assay results: PubChem BioAssay AID1850 (Southern Research Specialized Biocontainment Screening …, 2009)
# pIC50: −log10 of the molar value. Several values for one entry are separate records, joined by “and”; a condition that tells them apart may be missing. Identical values can stand only once.
# System: Salmonella Typhi PhoP-promoter GFP reporter, fluorescence, 4 h
# Assay: PhoP regulon inhibitors, Salmonella typhi PhoP promoter GFP reporter, confirmatory (AID 1850)
row,Structure (SMILES),pIC50
1,COc1ccc(/C=N/Nc2cc(C)nc3ccc(Br)cc23)cc1,4.72
2,OCCN1CCN(C2CCC(c3ccc(F)cc3)c3ccc(F)cc32)CC1 (stereo not drawn),4.44
3,O=[N+]([O-])c1cc(Cl)cc(/C=N/NC(=S)Nc2ccc(S(=O)(=O)N3CCOCC3)cc2)c1O,4.10
4,O=C(Cc1ccc([N+](=O)[O-])cc1)N/N=C/c1ccc([N+](=O)[O-])o1,4.70
5,Cc1cc(C2CCCCC2)n(O)c(=O)c1,4.76
6,COc1cc(CNCCc2ccccc2)cc(Cl)c1OCc1ccccc1,4.45
7,N=c1c2c(-c3ccccc3)c(-c3ccccc3)n(Cc3ccco3)c2ncn1CCCn1ccnc1,3.96
8,C[C@H]1O[C@@H](n2cc(F)c(=O)[nH]c2=O)[C@H](O)[C@@H]1O,4.49
9,C=CCNc1ncnc2c1[nH]c1ccc(C)cc12,4.72
10,NC(=NCCCCCCN=C(N)/N=C(\N)Nc1ccc(Cl)cc1)/N=C(\N)Nc1ccc(Cl)cc1,5.27 and 5.11 and 5.28
11,O=C(O)c1cc2c(cn1)[nH]c1ccccc12,4.11
12,CSc1ccc2c(c1)C(N1CCN(C)CC1)Cc1ccccc1S2 (stereo not drawn),4.40
13,Cc1cc(C)n(-c2nc(SCCN(C)C)c3c4c(sc3n2)CCCC4)n1,4.38
14,CN1CCN(c2nc3cc(C(F)(F)F)ccc3n3cccc23)CC1,4.13
15,CCOc1cccc(CNCCc2c(C)[nH]c3ccc(OC(F)(F)F)cc23)c1O,4.40
16,CCc1ccc(N2CC(C(=O)N/N=C/c3cc([N+](=O)[O-])ccc3O)CC2=O)cc1 (stereo not drawn),4.25
17,CCSc1ccc2c(c1)N(CCCN1CCN(C)CC1)c1ccccc1S2,4.34
18,CCCCCCCCCCOC(=O)Cn1c(COc2cccc(C)c2)[n+](C)c2ccccc21,4.91
19,O=c1[nH][nH]c(-c2ccccc2O)c1C(C[N+](=O)[O-])c1ccc(Br)cc1 (stereo not drawn),4.04
20,Nc1nc(Nc2ccccc2)nc2ccccc12,4.46
21,O=[N+]([O-])c1cc(/C=N/Nc2nc3ccccc3[nH]2)c(O)cc1O,4.71
22,CCCCn1c(=N)n(CC(=O)c2ccc(Br)s2)c2ccccc21,4.29

row,Structure (SMILES),pIC50
1,O=C(Nc1nnc(C2COc3ccccc3O2)o1)c1ccc(F)cc1 (stereo not drawn),4.44
2,N/C(=N\OS(=O)(=O)c1ccccc1)c1cccnc1,4.85
3,S=C(Nc1ccc(Cl)c(Cl)c1)NC1CCN(Cc2ccccc2)CC1,4.47
4,O=C(N/N=C/c1ccccc1O)c1ccncc1,4.44
5,CO[C@@]1(NC(=O)Cc2cccs2)C(=O)N2C(C(=O)O)=C(COC(N)=O)CS[C@@H]21,5.03
6,C#CCOCCOCCOCCNc1nc(N2CCN(C(=O)CCCCCCCCCCNC(=O)[C@H](CCCCN)n3cc(C)nn3)CC2)nc(N2CCN(C(=O)CCCCCCCCCCNC(=O)[C@@H]([C@H](C)CC)n3cc(CCCCCN)nn3)CC2)n1,4.48
7,O=C(N/N=C/c1ccc([N+](=O)[O-])s1)c1ccccc1Br,4.13
8,CC1CCc2c(N3CCC(O)CC3)c(F)cc3c(=O)c(C(=O)O)cn1c23 (stereo not drawn),5.52
9,CNC[C@H](Cc1ccccc1)NC[C@@H](Cc1cccc2ccccc12)NCCc1ccc(C)cc1,4.71
10,Oc1ccc(CN2CCN(Cc3ccccc3)CC2)c2cccnc12,4.48
11,O=c1ccc2cc3c([nH]c4ccc(Br)cc43)oc-2c1O,4.62
12,O=C(c1ccccc1)c1c2c(cc3sc4ccccc4[n+]13)-c1cccc3cccc-2c13,4.45
13,O=c1[nH]cc(F)c(=O)[nH]1,5.52
14,Oc1c(Br)cc(Br)cc1C=Nc1cccc2ncccc12,4.43
15,CCn1cc(C(=O)O)c(=O)c2cc(F)c(N3CCN(C(=S)NC(=O)c4ccccc4F)CC3)cc21,4.26
16,CCCCN(CCCC)C(=O)c1cn(CC)c2cc(N3CCN(C)CC3)c(F)cc2c1=O,5.37
17,C/C(=N\N=C(N)N)c1ccc(Cl)c(Cl)c1,4.11
18,CCCCCCCCCn1c2c(c(=N)c3c1CCC3)CCC2,4.76
19,CCCOc1ccc(C(=O)NNC(=S)NC(=O)CC)cc1,4.32
20,CCCCCCCCCC[N+](C)(C)CC/C=C1/c2ccccc2Sc2ccc(Cl)cc21,4.88
21,CN1CCN(C2=Cc3cc(Cl)ccc3Sc3cc(F)ccc32)CC1,4.35
